Reference: patent US20170327779A1, “METHOD FOR PRODUCING CELL AGGREGATES” (Kaneka Corporation, priority 2015, published 2017)

Assays:
Type in all cases: cell-based
human iPS cells [1] = assay: Formation of aggregates of human iPS cells by rotary shaking suspension culture with KSR or its protein-based components; conditions: factor added instead of KSR; micrographs at Day 1 (FIG. 6)
Description: TkDN4-M cell line (Non-Patent Literature 1) was used as human iPS cells. The human iPS cells were seeded on cell culture dishes coated with Matrigel (Corning, Inc.) or Vitronectin (Life Technologies Japan Ltd.). A culture medium, which was mTeSR1 (STEMCELL Technologies, Inc.) or Essential 8™ (Life Technologies Japan Ltd.), was used for maintenance culture. As a cell detachment agent at the time of cell passage, TrypLE Select (Life Technologies Japan Ltd.) was used when the cells were cultured on Matrigel; and 0.02% EDTA (ethylene diamine tetraacetic acid) solution or Accutase (Life Technologies Japan Ltd.) was used when the cells were cultured on Vitronectin. In addition, when the cells were seeded, Y-27632 (Wako Pure Chemical Industries, Ltd.) at a concentration of 10 μM was added to a culture medium. The culture medium was changed every day. For experiments, human iPS cells (the number of passage was 50 or less) were used.
Human iPS cells were treated with TrypLE Select or EDTA solution for 3 to 5 min and were detached. After dispersed as single cells, the cells were made to pass through a cell strainer with a pore size of 40 μm (Becton, Dickinson and Company). […] A portion thereof was then stained with trypan blue and the number of cells was counted. […]

human iPS cells [2] = assay: Effect of LPA or S1P on cell aggregation of human iPS cells in suspension culture, microscopic observation; conditions: for φ, width of the widest portion of cell aggregate (average±standard deviation): 1 day, 30 aggregates; for size of spherical cell aggregates: 0.2 μg/mL, BSA-ff 5 mg/mL, Y-27632 10 μM, 1 day suspension culture (FIG. 8)
Description: Human iPS cells that had been cultured using the protocol of Example 1 were treated with TrypLE Select, EDTA solution, or Accutase for 3 to 5 min and were detached. After dispersed as single cells, the cells were made to pass through a cell strainer with a pore size of 40 μm (Becton, Dickinson and Company) to monodisperse as single cells. The resulting cells were suspended in Essential 8™ medium containing a final concentration of 10 μM Y-27632 (Wako Pure Chemical Industries, Ltd.). A portion thereof was then stained with trypan blue and the number of cells was counted. Suspensions containing 2×10^5 cells per ml were prepared. To each cell suspension were added lipid-free bovine serum albumin (BSA-ff; CultureSure albumin, Wako Pure Chemical Industries, Ltd.) at a final concentration of 5 mg/mL and Y-27632 (Wako Pure Chemical Industries, Ltd.) at a final concentration of 10 μM. In addition, the following lipids were each added to the cell suspension and the cells were subjected to rotary shaking culture for 1 day under the same conditions as in Example 2 to culture human iPS cells in suspension. After one day of the suspension culture, the cells were observed under a microscope.
The lipids and additives used in this study are as follows: • LPA (Lysophosphatidic acid) (1-O-9Z-octadecenoyl-sn-glyceryl-3-phosphoric acid, a sodium salt, Cat. No. 62215, Cayman, Inc.; with an oleyl group at sn-1 position).
S1P (Sphingosine-1-phosphoric acid) (2S-amino-1-(dihydrogen phosphate)-4E-octadecene-1,3R-diol, Cat. No. 62570, Cayman, Inc.)
LPA at 0.2 μg/mL or S1P at 0.2 μg/mL was added to the human iPS cell suspension.
(§1) Human iPS cell suspensions were prepared using substantially the same protocol as in Example 5. LPA was added as a sodium salt at a concentration of 0.00128 μg/mL, 0.0064 μg/mL, 0.032 μg/mL, 0.16 μg/mL, 0.8 μg/mL, 4 μg/mL, 20 μg/mL, or 100 μg/mL. To each suspension were added BSA-ff at a final concentration of 5 mg/mL and Y-27632 (Wako Pure Chemical Industries, Ltd.) at a final concentration of 10 μM. The cells were cultured in suspension for 1 day under the same conditions as in Example 5 and then observed under a microscope.
Inspected were 30 cell aggregates on an observation image obtained when the concentration of LPA was from 0.16 to 100 μg/mL. While being compared using a micrograph scale, the width (referred to as “φ”) of the widest portion of each cell aggregate was measured to calculate an average±standard deviation.
as §1, with “[…]” for “LPA”, “free form” for “sodium salt”
Inspected were 30 cell aggregates on an observation image obtained when the concentration of S1P was from 0.032 to 100 μg/mL. While being compared using a micrograph scale, the width (referred to as “φ”) of the widest portion of each cell aggregate was measured to calculate an average±standard deviation. […]

human iPS cells [3] = assay: Glucose consumption and total cell count of human iPS cells cultured in suspension with LPA or S1P; conditions: 0.2 or 1 μg/mL, compared with BSA-ff alone; for number of cells (total cell count): Day 5, n=3 (FIG. 13); for glucose consumption: Days 2 to 5, n=3 (FIG. 12)
Description: Human iPS cell suspensions were prepared using substantially the same protocol as in Example 5. To each cell suspension were added LPA or S1P at a final concentration of 0.2 μg/mL or 1 μg/mL, and BSA-ff at a final concentration of 5 mg/mL and Y-27632 (Wako Pure Chemical Industries, Ltd.) at a final concentration of 10 μM. As a control, cell suspensions were prepared using the same protocol as in Example 5. That is, prepared were the cell suspensions solely containing BSA-ff at a final concentration of 5 mg/mL and Y-27632 at a final concentration of 10 μM.
The above cell suspensions were subjected to suspension culture for […] under the same conditions as in Example 5. At Day 2 of culture, the culture medium was changed every day with Essential 8™ culture medium supplemented with 5 mg/mL BSA-ff. At Days 2, 3, 4, and 5, the concentration of glucose in the culture supernatant was measured to calculate glucose consumption. In addition, at Day 5 of culture, cell aggregates were collected, dispersed using Accutase, and suspended in Essential 8™ culture medium supplemented with 5 mg/mL BSA-ff. A portion of each cell suspension was stained with trypan blue and the number of cells was counted. The above cell suspensions were centrifuged at 300 g for 5 min, the supernatant was then removed, and the cells were washed with PBS (phosphate buffered saline). Next, the cells were fixed with 4% PFA (paraformaldehyde) at room temperature for 20 min, then washed 3 times with PBS, and permeabilized with cold methanol at −20° C. overnight. After washed 3 times with PBS, the cells were blocked with 3% FBS (fetal calf serum)/PBS and stained using a fluorescently labeled anti-SOX2 antibody (Cat. No. 656110, Biolegend, Inc.) and a fluorescently labeled anti-OCT4 antibody (Cat. No. 653703, Biolegend, Inc.) at 4° C. for 1 h. After washed once with 3% FBS (fetal calf serum)/PBS, the cells were made to pass through a cell strainer. The resulting cells were analyzed on FACSVerse.
The following procedure was used to measure glucose consumption. Specifically, the culture supernatant was recovered at medium change and a bioanalyzer (Y512950), manufactured by YSI, Inc., was used to measure the remaining glucose amount. In this way, the glucose consumption was calculated.
A total cell count was measured at Day 5 of culture. The following procedure was used to measure the total cell count. Specifically, the cell aggregates that had been formed were treated with TrypLE Select for 5 to 10 min, pipetted using a blue tip to monodisperse as cells, and stained with trypan blue. After that, the number of cells was counted using a hemocytometer to determine the total cell count.

| Molecule | formation of aggregates (human iPS cells [1]) | φ, width of the widest portion of cell aggregate (average±standard deviation) (human iPS cells [2]; 0.16 μg/mL) | size of spherical cell aggregates (human iPS cells [2]) | φ, width of the widest portion of cell aggregate (average±standard deviation) (human iPS cells [2]; 0.8 μg/mL) | φ, width of the widest portion of cell aggregate (average±standard deviation) (human iPS cells [2]; 4 μg/mL) | φ, width of the widest portion of cell aggregate (average±standard deviation) (human iPS cells [2]; 20 μg/mL) | φ, width of the widest portion of cell aggregate (average±standard deviation) (human iPS cells [2]; 100 μg/mL) | diameter of cell aggregates (human iPS cells [2]; S1P 0.0064 μg/mL or less, 1 day (FIG. 10)) | formation of cell aggregates (human iPS cells [2]; S1P 0.032 to 100 μg/mL, 1 day (FIG. 10)) | number of cells (total cell count) (human iPS cells [3]) | glucose consumption (human iPS cells [3]) | diameter of cell aggregates (human iPS cells [2]; LPA 0.032 μg/mL or less, 1 day (FIG. 9)) | formation of cell aggregates (human iPS cells [2]; LPA 0.16 to 100 μg/mL, 1 day (FIG. 9)) |
| --- | --- | --- | --- | --- | --- | --- | --- | --- | --- | --- | --- | --- | --- |
| transferrin: transferrin (Sigma-Aldrich Co. LLC.), lipid-free protein-based component of KSR | large aggregates |  |  |  |  |  |  |  |  |  |  |  |  |
| insulin: insulin (Sigma-Aldrich Co. LLC.), lipid-free protein-based component of KSR | large aggregates |  |  |  |  |  |  |  |  |  |  |  |  |
| CCCCCCCCCCCCC/C=C/[C@@H](O)[C@@H](N)COP(=O)(O)O [S1P, 2S-amino-1-(dihydrogen phosphate)-4E-octadecene-1,3R-diol] |  | 142.4±16.4 μm | about 100 μm | 118.5±21.8 μm | 109.9±23.1 μm | 94.0±19.4 μm | 89.0±19.5 μm | ≥ 1 mm | cell aggregates with a substantially uniform size were formed | larger | larger |  |  |
| 1-O-9Z-octadecenoyl-sn-glyceryl-3-phosphoric acid, a sodium salt [LPA] |  | 124.9±26.5 μm | about 100 μm | 68.2±9.8 μm | 57.2±8.7 μm | 39.9±8.0 μm | 41.6±9.9 μm |  |  | larger | larger | ≥ 1 mm | cell aggregates with a substantially uniform size were formed |
